# Like-named read-outs stand apart in the source and are kept apart here.
# Tested on: WBP2 overexpressing cancer cells
# Experiment: Drug sensitivity of cells overexpressing WT ITCH versus C830A or E855K mutant ITCH to Wnt inhibitors
# Assay type: cell-based
# Protocol: This was indeed the case for up to 0.0001 μM and 5 μM for FH535 and C59, respectively, but above these doses, the distinction was lost probably as a result of non-specific cytotoxicity (FIGS. 8 and 9). This implies that ITCH inactivating mutations could be used to predict for response to Wnt inhibitors especially in cancers that are dependent on WBP2.
# [1] = WT ITCH vs C830A or E855K mutant ITCH overexpression, FIGS. 8 and 9
SMILES,"dose up to which the difference in sensitivity between WT ITCH and mutant ITCH cells held (above it the distinction was lost, probably non-specific cytotoxicity) [1]",sensitivity of cells to the Wnt inhibitor when WT ITCH is overexpressed (low WBP2) compared to when C830A or E855K mutant is overexpressed (high WBP2) [1],"dose up to which the difference in sensitivity between WT ITCH and mutant ITCH cells held (above it the distinction was lost, probably non-specific cytotoxicity)"
Cc1cc([N+](=O)[O-])ccc1NS(=O)(=O)c1cc(Cl)ccc1Cl [FH535],up to 0.0001 μM,less sensitive,–
Cc1cc(-c2ccc(CC(=O)Nc3ccc(-c4cccnc4)cc3)cc2)ccn1 [C59],–,less sensitive,≤ 5 µM

# — US20170045520A1, “METHOD FOR PREDICTING RESPONSE TO THERAPY FOR CANCER” (National University of Singapore, priority 2014, published 2017)
